Experimental data published in publication PMC9304322, “Targeting retinoic acid receptor alpha-corepressor interaction activates chaperone-mediated autophagy and protects against retinal degeneration” (Nature Communications, 2022).
Several values for one entry are separate records, joined by “and”; a condition that tells them apart may be missing. Equal entries are not always repeated.

How the values were obtained:
[1] = Pharmacokinetic analysis, plasma and brain;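 as to Fig. 3b level, single animals 1-3: brain concentration in ng/g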; assay type: in vivo, ICR (CD-1) male mice; set-up: Fig. 3a level, single animals 1-3 / Fig. 3b level, single animals 1-3: unit not given here; details: for Fig. 3a level, single animals 1-3 / Fig. 3b level, single animals 1-3: IV, Time 0.083 h; for predicted brain concentration: intraperitoneal 30 mg/kg bw, converted from Cmax or AUC (CA39: AUC and extended half-life)
[2] = tested on: KFERQ-Dendra mice; assay: CMA activity in tissues of KFERQ-Dendra mice;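 as to % cells: percentage of blood CD4+ T cells with more than 3 CMA puncta per cell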; assay type: in vivo, mouse; set-up: Fig. 3g value / Fig. 3g value, Mean 2: unit not given here; details: for Fig. 3g value, Mean 2: group mean of the test details, n 6; for Fig. 3g value / % cells: single replicate values; for % cells: Fig. 3d; for fluorescent Dendra+ puncta in liver: KFERQ-Dendra mice, i.p. 30 mg/kg bw daily for 3 days; for number of Dendra+ puncta per cell in retina (Fig. 4f), average / number of Dendra+ puncta per cell in retina (Fig. 4f), individual fields: flat-mounted retinas; for number of Dendra+ puncta per MAP2 + cell (Fig. 4b), individual sections: hippocampus (CA1 region), i.p. 30 mg/kg bw daily for three consecutive days
Protocol: C57BL/6 J mice wild-type (WT) and homozygous for the Pde6 mutation (rd10 mouse model of retinal degeneration) were obtained from The Jackson Laboratory and experiments were performed at the age indicated in each part of the study. C57BL/6 KFERQ-Dendra mice were generated by back-crossing FVB KFERQ-Dendra mice with wild-type C57BL/6 mice for 8 generations. Both male and female animals were used in this study in equally distribution groups. However, results from both sexes were pooled, because of absence of significant differences in any of the parameters analyzed after statistical analysis with a mixed model of two-way ANOVA sex and treatment as independent variables and the corresponding measure as dependent variable. All animals were housed in a barrier-controlled facility (19–23 °C 30–60% relative humidity; 12 h light/dark cycle) with ad libitum access to standard chow pellets (protein 19 gm%/carbohydrate 67 gm%/fat 4 gm%) and water. For animal administration of CA compounds, a formula containing 30% PEG 400 (Sigma, #8.0745), 65% of 5% glucose solution, 5% Tween 80 (Sigma, #P1754) was used to dissolve them. CA compounds were prepared freshly by adding 5% DMSO and sonicating for 1 h. Treatment of KFERQ-Dendra mice with the CA compounds was done at 4 months of age by i.p. daily injection of 30 mg/kg bw or vehicle for three consecutive days and tissues collected 6 h after the last injection. In the case of rd10 mice, animals were daily injected from P18 to P25 with CA77 (40 mg/kg bw). In the case of intravitreal administration, a single intravitreal injection was applied at P18 with CA77 (40 µM) in DMSO/PBS and the contralateral eye was injected with PBS and DMSO at same concentration. At P26, mice were sacrificed and eyes fixed overnight with 4% PFA (Sigma, #P6148) in PBS at 4 °C for immunofluorescence or retinas dissected and immediately frozen for biochemistry. Distribution of animals in the vehicle or treatment group was done randomly. ICR (CD-1) outbred 3 months old male mice from ENVIGO were used for the pharmacokinetic studies (see pharmacokinetic section for housing and handling details). All animal studies and procedures complied with ethical regulations, were performed in accordance with the European Union guidelines and the ARVO Statement for the Use of Animals in Ophthalmic and Vision Research and were approved by the Institutional Animal Care and Use Committee at the Albert Einstein College of Medicine, the CSIC Bioetica Comite and approved by the Comunidad de Madrid, PROEX232/17.
All mice were perfused with PBS. Livers were post-fixed overnight at 4 °C in picric acid fixation buffer (2% formaldehyde, 0.2% picric acid in PBS, pH7.0) and then washed with 70% ethanol, followed by two washes in PBS. Livers were immersed in 30% sucrose and then embedded in OCT for sectioning in a cryostat (Leica CM3050 S). After airdrying for 30 min, sections were stored at −20 °C until use. Brains were post-fixed for 12 h in 4% paraformaldehyde, cryoprotected in PBS containing 20% sucrose before being frozen by immersion in a cold isopentane bath (−50 °C), and stored immediately at −80 °C until sectioning. Brains were also sectioned in a cryostat at −20 °C in coronal 40 μm-thick free-floating sections. Immunostainings were performed after permeabilization of the sections with 0.3% Triton X-100 in PBS for 30 minutes at RT followed by blocking (10% normal goat serum, 2% Triton X-100 in PBS) and subsequent incubation with the primary and appropriate anti-species secondary antibody. Cell nuclei were stained using Hoechst (Life Technologies, 33342) at 1:5000 for 30 s (in retina) or 10 min (in brain sections) prior to mounting. Images were acquired with a Leica confocal TCS-SP8 (Leica Microsystem) using an HCX Plan Apo CS ×63.0 1.40 NA oil objective and the Leica Application Suite X (LAS X). Puncta was quantified using ImageJ Software (NIH)[38] after thresholding. […]

[3] = i.p. 30 mg/kg bw daily for three days
[4] = i.p. 30 mg/kg bw daily for three days, 30 mg/kg

SMILES | Fig. 3a level, single animals 1-3 [1] | Fig. 3b level, single animals 1-3 [1] | predicted brain concentration [1] [µM] | Fig. 3g value, Mean 2 [2] | Fig. 3g value [2] | % cells [2] | fluorescent Dendra+ puncta in liver [2] | number of Dendra+ puncta per cell in retina (Fig. 4f), average [2, 3] [puncta/cell] | number of Dendra+ puncta per cell in retina (Fig. 4f), individual fields [2, 4] | number of Dendra+ puncta per MAP2 + cell (Fig. 4b), individual sections ([2]; 30 mg/kg) | number of Dendra+ puncta in individual TH+ cells (Fig. S8d) ([2]; midbrain substantia nigra, i.p. 30 mg/kg bw daily for three days, 30 mg/kg)
Clc1ccc2c(c1)OCC(c1ccc(-c3ccccc3)cc1)=N2 [CA39] | 52.0116 and 70.6516 and 60.713 | 52.0116 and 70.6516 and 60.713 | 10 to 20 | 20 | 16.28 and 30.33 and 23.44 and 14.29 and 16.39 and 19.29 | 21% and 39% and 30% and 21.8% and 22.6% and 12.2% and 9.5% and 24.2% and 12.8% and 21.2% | significant increase in the number of fluorescent Dendra^+ puncta | 1.185 | 1.154 puncta/cell and 0.857 puncta/cell and 0.867 puncta/cell and 0.700 puncta/cell and 1.556 puncta/cell and 1.350 puncta/cell and 1.500 puncta/cell and 0.737 puncta/cell and 1.385 puncta/cell and 0.958 puncta/cell and 0.950 puncta/cell and 2.000 puncta/cell and 1.182 puncta/cell and 1.400 puncta/cell | 20 and 22 and 18 and 25 and 16 and 15 and 12 and 10 | 27 and 32 and 4 and 2 and 55 and 34 and 23 and 3 and 21 and 1 and 48 and 38 and 6 and 39 and 22 and 45 and 12 and 35
CC(=O)Nc1ccc(C2=Nc3ccc(Cl)cc3OC2)cc1 [CA77] | 52.9 and 41.4 and 14.2 | 3773 and 2943 and 693 | 5 to 20 | 17.33 | 10 and 12 and 22 and 23 and 19 and 18 | 9% and 28% and 12% and 18% and 22% and 17% and 32% and 26% | significant increase in the number of fluorescent Dendra^+ puncta | 1.396 | 1.250 puncta/cell and 1.040 puncta/cell and 1.583 puncta/cell and 1.063 puncta/cell and 1.100 puncta/cell and 1.667 puncta/cell and 1.375 puncta/cell and 1.846 puncta/cell and 1.000 puncta/cell and 1.750 puncta/cell and 1.684 puncta/cell | 22 and 17 and 15 and 26 and 12 and 18 and 9 and 5 | 
